Consider four molecules from patent US20240237641A1, “COMPOSITION COMPRISING GRAPHENE FOR THE TREATMENT OF TEXTILE ARTICLES AND TEXTILE ARTICLES TREATED” (DIRECTA PLUS S.P.A., priority 2021, published 2024).

One data set concerns Vero E6 cells. Particulars: substances solubilized in DMSO, luminescence kit for quantification of viable cells.
The subject of a further data set is Sars-CoV-2. Put plainly: Test of inhibition of Sars-CoV-2 viral infection of Vero E6 cells. Format: cell-based. Particulars: Severe acute respiratory syndrome coronavirus 2, Vero C1008, read-out: viable cells. On the procedure: The substances were evaluated in the concentration ranges from […]. With the same concentration (0.015 mg/mL) maximum efficacy was obtained with Curcumin (94% viable cells), followed by Emodin (89% viable cells), α-Hederine (71% viable cells) and Thymoquinone (73% viable cells).

Take `COc1cc(/C=C/C(=O)/C=C(O)/C=C/c2ccc(O)c(OC)c2)ccc1O` [curcumin]: the “concentrations tolerated by the cells” value in the data set on Vero E6 cells is 15000 ng/mL. For the same molecule, in the data set on Sars-CoV-2, the viability at 15 µg/mL is 94%.

Regarding `Cc1cc(O)c2c(c1)C(=O)c1cc(O)cc(O)c1C2=O` [emodin], the “concentrations tolerated by the cells” value in the data set on Vero E6 cells worked out at 60000 ng/mL. Also, the viability at 15 µg/mL with Sars-CoV-2 is 89%.

As for `CC1=CC(=O)C(C(C)C)=CC1=O` [thymoquinone], the “concentrations tolerated by the cells” value with Vero E6 cells is 7500 ng/mL. Further, the viability at 15 µg/mL with Sars-CoV-2 worked out at 73%.

For the molecule `C[C@@H]1O[C@@H](O[C@H]2[C@H](O[C@H]3CC[C@@]4(C)[C@@H](CC[C@]5(C)[C@@H]4CC=C4[C@@H]6CC(C)(C)CC[C@]6(C(=O)O)CC[C@]45C)[C@]3(C)CO)OC[C@@H](O)[C@@H]2O)[C@H](O)[C@H](O)[C@H]1O` [α-hederine], in the data set with Vero E6 cells, the “concentrations tolerated by the cells” value turned out to be 7500 ng/mL. Further, the viability at 15 µg/mL in the data set with Sars-CoV-2 stood at 71%.
